The nature of data set [1]: Pharmacokinetics in SAD and MAD studies (plasma, urine). It counts as in vivo. On the procedure:
Secondary Objectives: • To assess the PK of ACI-3024 in plasma, urine, and cerebrospinal fluid (CSF). • To compare the plasma and urine PK parameters of ACI-3024 following single oral doses in the fed and fasting states.
In each of Cohorts S1 to S5, 6 subjects (including 3 Japanese subjects in Cohorts S2 through S5) received ACI-3024 and 2 subjects (including 1 Japanese subject in Cohorts S2 through S5) received placebo. All doses were administered in the fasting state in accordance with a randomization schedule on the morning of Day 1, except for subjects in the food-effect cohort (Cohort S4), who were dosed 30 minutes after starting a high-fat breakfast in Treatment Period 2 only. Each subject received only a single dose of ACI-3024 or placebo during the study, except for subjects in the food effect cohort, who received a single dose of ACI-3024 or placebo in the fasting state followed by a single dose of ACI-3024 in the fed state. Thus, subjects in Cohort S4 received either 2 identical doses of ACI-3024 (6 subjects) or 1 dose of placebo and 1 dose of ACI-3024 (2 subjects). Six subjects of Cohort S4 received 750 mg dose of ACI-3024 and 2 subjects received placebo. After a period of wash-up all 8 subjects of Cohort S4 received a fat-breakfast and a 750 mg dose of ACI-3024.
Cohorts MAD-HV1 to MAD-HV3 comprised 10 elderly non-Japanese male or female subjects, 8 were treated with ACI-3024 and 2 were being given placebo. Cohort MAD-HV4 comprised 5 non-elderly Japanese subjects (4 treated with ACI-3024 and 1 given placebo) and 5 […] (4 treated with ACI-3024 and 1 given placebo). Only subjects from MAD HV3 cohort underwent CSF samplings to explore the CSF inflammatory markers, CSF PK, and CSF PD of ACI-3024. For all subjects, dosing was on […], inclusive, and a final single dose administration occurred on […]. Dose in cohort MAD HV1 was 500 mg of ACI-3024 or placebo, QD, fasted. Dose in cohorts MAD HV2 and MAD HV4 was 500 mg of ACI-3024 or placebo, BID (“bis in die” ie., twice a day), fed. Dose in cohort MAD HV3 was 1400 mg of ACI-3024 or placebo, QD (“quaque die” (once a day), fed.

The test system of the next data set is respiratory function. Description: Respiratory function evaluation in mice (whole body plethysmography). The class given is in vivo, mouse. The following applies: single oral administration 100, 300 and 750 mg/kg, conscious female mice. As for the experimental part: This study was conducted to evaluate the potential modifications of respiratory function by ACI-3024 when given as single dose to CD1 mice.
Doses of 100, 300 and 750 mg/kg were administered by oral gavage to 8 females/group. The control animals were administered vehicle. The dose volume was 10 mL/kg for all groups. Animals underwent a whole body plethysmography carried out starting 30 minutes before dosing up to 5 hours after; moreover, a subsequent 1-hour registration was conducted 24 hours post dose.

Another data set has as its system healthy subjects. In words: First-in-human study, multiple ascending dose (MAD) part: safety and tolerability. The following applies: MAD cohorts. It counts as in vivo. The text has this: A First-In-Human, Randomized, Placebo-Controlled, Double-Blind, SAD/MAD Study to Assess the Safety, Tolerability, Pharmacokinetics, and Pharmacodynamics of ACI-3024
The objective of the study is to assess the safety, tolerability, pharmacokinetics (PK), and pharmacodynamics (PD) of single ascending doses (SAD) and multiple ascending doses (MAD) of ACI-3024 in a first-in-human, randomized, placebo-controlled, double-blind, sequential SAD/MAD study with open-label food effect and pharmacodynamic assessment arms. The study comprises different parts to be conducted in Healthy Volunteers: • 1) one Single Ascending Dose (SAD) part in which several cohorts are being investigated with single ascending doses of ACI-3024. The food effect is also explored in this part. • 2) one Multiple Ascending Dose (MAD) part in which several cohorts are being investigated with multiple ascending doses of ACI-3024. Each study part is assessing the safety, tolerability, pharmacokinetics and pharmacodynamics of ACI-3024.
This part was conducted in elderly non-Japanese healthy subjects (MAD HV1 to MAD HV3 cohorts) and in non-elderly Japanese and non-Japanese healthy male subjects (MAD HV4 cohort).
The healthy subject part of Part III was a multiple dose, sequential group study. Overall, 30 healthy elderly male or female non Japanese subjects are being studied in 3 cohorts (Cohorts MAD HV1 to MAD-HV3), with each cohort consisting of 10 subjects. A cohort of 10 healthy non-elderly male Japanese and non-Japanese subjects were enrolled (MAD HV4) to collect safety, tolerability, PK, and PD biomarker data and to enable direct comparisons between non-elderly Japanese and non-Japanese subjects after multiple doses. The dose used in this cohort is based on previously conducted cohorts in non Japanese elderly healthy subjects to assess the effect of multiple doses in non-elderly male Japanese subjects compared to non-elderly non-Japanese male subjects. The MAD HV4 cohort was dosed in parallel with the MAD HV3 cohort. […]

The mark [2] stands for this setting: statistical assessment, healthy volunteers.

Structures are written as SMILES. Where two headings read alike, the source gives them in different places.

In the case of `Fc1ccc2c3c([nH]c2c1)CCN(c1ccc2oc(N4CCOCC4)nc2c1)C3` [ACI-3024], the Tmax in data set [1] (both sexes, human, plasma, oral, fasting state, single or multiple doses, read-out: median time of maximum observed plasma concentration (Tmax)) is 1.25 to 2.5 h. The half-life in data set [1] (both sexes, human, plasma, oral, following 14 days of multiple dosing, when calculable, read-out: geometric mean t1/2) was 47.5 to 101 h; in data set [1] (human, plasma, oral, humans, read-out: plasma half-life), over 24 h; in data set [1] (male, human, plasma, oral, following single dose administration, read-out: geometric mean t1/2), 27.7 to 60.5 h. The “food effect on rate of absorption” value in data set [1] (fed vs fasting state) was “reduced the rate of absorption”. Also, the “food effect: increase of overall exposure” value in data set [1] (fed vs fasting state) is recorded as “approximately 3 fold”. Further, the excretion in urine result in data set [1] (healthy volunteers) was “Only a small amount”. Further, the accumulation entry in data set [1] (multiple dosing, QD or BID regimen) is “evidence of accumulation”. Moreover, the “dose proportionality of AUC0-tlast and AUC0-∞” value in data set [1] (setting [2]) is listed as “dose-proportional increase”. Moreover, in data set [1] (setting [2]), the “dose proportionality of Cmax” value is listed as “subproportional increase”. The “effect on respiratory parameters” value in the data set with respiratory function was “did not exert effect”. Also, the “serious adverse events of liver injury possibly related to study drug” value in the data set on healthy subjects (14 days) was 2. In addition, the “AEs considered related or possibly related to study drug” value with healthy subjects (14 days, of 89 AEs) came out at 33. For the same compound, in the data set on healthy subjects (dose below 1000 mg/day), the SAEs result was “did not show SAEs”.

The values are drawn from patent publication US20230123140A1, “DOSE TREATMENTS OF TAUOPATHIES” (AC Immune SA, priority 2020, published 2023).
